According to PubChem BioAssay (NCI):
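Five compound concentrations were applied to cells in 96-well plates for 48 hours; endpoints were derived by simple linear interpolation of the resulting dose-response curve. GI50 = concentration required for 50% inhibition of growth. TGI marks complete inhibition of growth.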

What was measured:
Assay in all cases: growth of human tumour cells (NCI), 48 h
[1] = system: 786-0 renal
[2] = system: A498 renal
[3] = system: A549 NSCLC
[4] = system: ACHN renal
[5] = system: BT-549 breast
[6] = system: CAKI-1 renal
[7] = system: CCRF-CEM leukemia
[8] = system: COLO 205 colon
[9] = system: DU-145 prostate
[10] = system: EKVX NSCLC
[11] = system: HCC-2998 colon
[12] = system: HCT-116 colon
[13] = system: HCT-15 colon
[14] = system: HL-60(TB) leukemia
[15] = system: HOP-62 NSCLC
[16] = system: HOP-92 NSCLC
[17] = system: HS 578T breast
[18] = system: HT29 colon
[19] = system: IGROV1 ovarian
[20] = system: K-562 leukemia
[21] = system: KM12 colon
[22] = system: LOX IMVI melanoma
[23] = system: M14 melanoma
[24] = system: MALME-3M melanoma
[25] = system: MCF7 breast
[26] = system: MDA-MB-231 breast
[27] = system: MDA-MB-435
[28] = system: MOLT-4 leukemia
[29] = system: NCI-H226 lung
[30] = system: NCI-H23 lung
[31] = system: NCI-H460 lung
[32] = system: NCI-H522 lung
[33] = system: NCI/ADR-RES ovarian
[34] = system: OVCAR-3 ovarian
[35] = system: OVCAR-4 ovarian
[36] = system: OVCAR-5 ovarian
[37] = system: OVCAR-8 ovarian
[38] = system: PC-3 prostate
[39] = system: RPMI-8226 leukemia
[40] = system: RXF 393 renal
[41] = system: SF-268 CNS
[42] = system: SF-295 CNS
[43] = system: SF-539 CNS
[44] = system: SK-MEL-2 melanoma
[45] = system: SK-MEL-28 melanoma
[46] = system: SK-MEL-5 melanoma
[47] = system: SK-OV-3 ovarian
[48] = system: SN12C renal
[49] = system: SNB-19 CNS
[50] = system: SNB-75 CNS
[51] = system: SR leukemia
[52] = system: SW-620 colon
[53] = system: T-47D breast
[54] = system: TK-10 renal
[55] = system: U251 CNS
[56] = system: UACC-62 melanoma
[57] = system: UO-31 renal

For `Cc1cnc(NC2CCOCC2)nc1-n1cnc(C(=O)N[C@H](CN)c2cc(F)cc(Cl)c2)c1`, the GI50 [1] was 1.49 µM, the TGI [1] was 20 µM and the GI50 [2] was 0.0508 µM. The TGI [2] was 0.462 µM, the GI50 [3] was 0.216 µM and the TGI [3] was 30.5 µM. For the same molecule, the GI50 [4] was 1.64 µM, the TGI [4] was 28 µM and the GI50 [5] was 5.02 µM. The TGI [5] was 17.2 µM, the GI50 [6] was 0.237 µM and the TGI [6] was 5.34 µM. It also gave a GI50 [7] of 2.4 µM, a TGI [7] of 24.5 µM and a GI50 [8] of under 0.01 µM. For the same molecule, the TGI [8] was 14.2 µM, the GI50 [9] was 2.34 µM and the TGI [9] was 82.8 µM. It also gave a GI50 [10] of 0.427 µM, a TGI [10] of 20.2 µM and a GI50 [11] of 0.018 µM. It also gave a TGI [11] of 11.6 µM, a GI50 [12] of 0.0177 µM and a TGI [12] of 12.4 µM. The GI50 [13] was 3.06 µM, the TGI [13] was 34.3 µM and the GI50 [14] was 0.0196 µM. It also gave a TGI [14] of 1.83 µM, a GI50 [15] of 0.154 µM and a TGI [15] of 20.9 µM. For the same molecule, the GI50 [16] was 0.023 µM, the TGI [16] was 2.12 µM and the GI50 [17] was 0.871 µM. The TGI [17] was 15.8 µM, the GI50 [18] was 0.0128 µM and the TGI [18] was over 35.4 µM. The GI50 [19] was 0.0702 µM, the TGI [19] was 13 µM and the GI50 [20] was 0.783 µM. The TGI [20] was 14.5 µM, the GI50 [21] was 0.0814 µM and the TGI [21] was 30.1 µM. It also gave a GI50 [22] of 0.0441 µM, a TGI [22] of 5.88 µM and a GI50 [23] of 0.0193 µM. The TGI [23] was 2.38 µM, the GI50 [24] was under 0.01 µM and the TGI [24] was 0.0157 µM. It also gave a GI50 [25] of 1.58 µM, a TGI [25] of 15.4 µM and a GI50 [26] of 0.0999 µM. The TGI [26] was over 30.6 µM, the GI50 [27] was 0.0638 µM and the TGI [27] was 16.4 µM. It also gave a GI50 [28] of 1.59 µM, a TGI [28] of 9.79 µM and a GI50 [29] of 1.36 µM. The TGI [29] was 10.9 µM, the GI50 [30] was 0.0201 µM and the TGI [30] was 16.5 µM. It also gave a GI50 [31] of 1.05 µM, a TGI [31] of 17.9 µM and a GI50 [32] of 8.23 µM. The TGI [32] was 30.5 µM, the GI50 [33] was 19.8 µM and the TGI [33] was over 91.9 µM. For the same molecule, the GI50 [34] was 1.94 µM, the TGI [34] was 22.2 µM and the GI50 [35] was 0.506 µM. The TGI [35] was 53.5 µM, the GI50 [36] was 0.0269 µM and the TGI [36] was over 82.8 µM. The GI50 [37] was 3.48 µM, the TGI [37] was 42.6 µM and the GI50 [38] was 4.36 µM. The TGI [38] was 38.5 µM, the GI50 [39] was 7.45 µM and the TGI [39] was 30.4 µM. For the same molecule, the GI50 [40] was 0.101 µM, the TGI [40] was 2.42 µM and the GI50 [41] was 1.86 µM. It also gave a TGI [41] of 23.2 µM, a GI50 [42] of 2.8 µM and a TGI [42] of 17.3 µM. For the same molecule, the GI50 [43] was 2.93 µM, the TGI [43] was 17.4 µM and the GI50 [44] was 0.0186 µM. For the same molecule, the TGI [44] was 0.531 µM, the GI50 [45] was 0.0203 µM and the TGI [45] was 13.5 µM. The GI50 [46] was 0.388 µM, the TGI [46] was 12.9 µM and the GI50 [47] was 0.523 µM. It also gave a TGI [47] of 8.17 µM, a GI50 [48] of 2.27 µM and a TGI [48] of over 52.1 µM. The GI50 [49] was 13.9 µM, the TGI [49] was over 57.8 µM and the GI50 [50] was 0.103 µM. It also gave a TGI [50] of 8.84 µM, a GI50 [51] of 1.14 µM and a TGI [51] of 16.5 µM. For the same molecule, the GI50 [52] was 0.0383 µM, the TGI [52] was 14.3 µM and the GI50 [53] was 13.6 µM. The TGI [53] was 46.6 µM, the GI50 [54] was 0.113 µM and the TGI [54] was 23 µM. The GI50 [55] was 1.54 µM, the TGI [55] was 22.9 µM and the GI50 [56] was 0.0102 µM. The TGI [56] was 5.57 µM, the GI50 [57] was 0.903 µM and the TGI [57] was 5.43 µM.
